Data published in patent US9029409B2, “Isoxazolines as therapeutic agents” (AbbVie Inc., priority 2011, dated 2015).

Each compound was assayed against T1, recombinant human MMP13 catalytic domain (CD) (Homo sapiens, UniProt P45452) (assay: MMP-13 catalytic domain FRET enzyme assay). Conditions: recombinant human MMP-13 catalytic domain.
T1 construct: catalytic domain (CD) construct encompassing residues 20-274 (SWISS-PROT P45452); made in house
Assay type: biochemical
Method: A recombinant human MMP13 catalytic domain (CD) construct encompassing residues 20-274 (SWISS-PROT P45452) was generated by synthetic gene methods and bacterial expression. MMP-13 activity assays were performed using the recombinant human MMP-13 CD at a 0.4 nM concentration and the fluorogenic substrate (QXL-520)-K-P-L-A˜Nva-Dap(5-FAM)-A-R-NH2 (Anaspec cat #60554-01, San Jose, Calif.) at a 0.25 μM concentration in assay buffer containing […], pH 7.5, 10 mM CaCl2, 150 mM NaCl, 0.05% Brij 35. The assay is based on the cleavage of this substrate by MMP-13, resulting in decrease of FRET between the donor-acceptor pair and subsequent fluorescence enhancement. The assays were carried out in 384-well plates (Greiner cat #781076, Germany) for 60 min at RT. After the incubation period, the reaction was quenched by the addition of 5 μL of 500 mM EDTA (100 mM final concentration) (Rankem, Cat #E0120, India) mixed well and the rate of substrate hydrolysis was determined by monitoring change in fluorescence at excitation and emission wavelengths of 485 nm and 535 nm respectively. Fluorescence was measured on a Victor V5 plate reader (Perkin Elmer, Turku, Finland). The test compounds used for assessing the potency of inhibition of MMP-13 activity were dissolved in DMSO (final DMSO concentration in the assay was 5%). Selected compounds were also screened against full length MMP13 (R&D Systems (Cat. No. 511-MM-010), Minneapolis, Minn.) at 2 nM concentration using the same fluorogenic substrate mentioned above. The enzyme was activated using 1 m Mp-aminophenylmercuric acetate—APMA (Cat #A-9563, Sigma, Germany).
Data analysis: The percent inhibition of the enzyme activity in presence of test compounds were calculated using the equation, percent (%) Inhibition=100−[(Fi/Fc)*100] where Fc is the fluorescence corresponding to initial enzyme activity and Fi is the fluorescence corresponding to the enzyme activity in presence of inhibitor. The IC50 values were calculated by fitting the dose-response data to a sigmoidal curve fitting equation using Graph Pad prism software (Version 5, La Jolla, Calif.).
MMP13 Catalytic Domain (CD) Potency of the Described Examples Determined Using Time Resolved Fluorescence Resonance Energy Transfer (FRET) Enzyme Assays: […]

Structure (SMILES) | IC50 [nM]
COc1cc(CNC(=O)c2cc(C3=NO[C@H]([C@H]4CO[C@H](CNC(=O)CO)CO4)C3)nc(C)n2)ccc1F | < 10
COc1cc(CNC(=O)c2cc(C3=NOC(c4ccc(CN5CCOCC5)cc4)C3)nc(C)n2)ccc1F (stereo not shown) | 10 to 100
CC(=O)N1CCC(C2CC(c3cc(C(=O)NCc4ccc(F)cc4)nc(C)n3)=NO2)CC1 (stereo not shown) | 10 to 100
COc1cc(CNC(=O)c2cc(C3=NOC(C4CCN(C(=O)CNC(C)=O)CC4)C3)nc(C)n2)ccc1F (stereo not shown) [drawing 879] | 10 to 100
CNC(=O)Cn1cc(C2CC(c3cc(C(=O)NCc4ccc(F)c(OC)c4)nc(C)n3)=NO2)ccc1=O (stereo not shown) | < 10
COc1cc(CNC(=O)c2cc(C3=NOC(C4CCN(C(=O)C5CC5)CC4)C3)nc(C)n2)ccc1F (stereo not shown) [drawing 1063] | 10 to 100
Cc1nc(C(=O)NCc2ccc(F)c(F)c2)cc(C2=NO[C@H]([C@H]3CO[C@H](CO)CO3)C2)n1 [drawing 953] | > 1000
CC(=O)N[C@H]1CC[C@H]([C@H]2CC(c3cc(C(=O)NCc4ccc5c(c4)NC(=O)CO5)nc(C)n3)=NO2)CC1 | < 10
COc1cccc(CNC(=O)c2cc(C3=NOC(C)(c4ccc(Cl)cc4)C3)ccn2)c1 (stereo not shown) | > 1000
CC(=O)N[C@H]1CC[C@H]([C@H]2CC(c3cc(C(=O)NCc4ccc(F)c(C)c4)nc(C)n3)=NO2)CC1 | 10 to 100
COC[C@@H]1CO[C@@H]([C@@H]2CC(c3cc(C(=O)NCc4ccc(F)c(OC)c4)nc(C)n3)=NO2)CO1 | 10 to 100
CC(=O)N[C@H]1CC[C@H](C2CC(c3cc(C(=O)NCc4ccc(F)cc4)nc(C)n3)=NO2)CC1 (stereo partly shown) | 10 to 100
COc1cc(CNC(=O)c2cc(C3=NOC(c4c[nH]cn4)C3)nc(C)n2)ccc1F (stereo not shown) | > 1000
Cc1nc(C(=O)NCc2ccc(F)c(Cl)c2)cc(C2=NO[C@H]([C@H]3CC[C@H](NC(=O)[C@H](C)O)CC3)C2)n1 | < 10
COc1cc(CNC(=O)c2cc(C3=NO[C@H]([C@H]4CO[C@H](CNC(=O)CC#N)CO4)C3)nc(C)n2)ccc1F | < 10
Cc1nc(C(=O)NCc2ccc(F)c(F)c2)cc(C2=NO[C@@H](c3ccc(=O)n(C)c3)C2)n1 | 100 to 1000

Structure (SMILES) | IC50 [nM]
COc1cc(CNC(=O)c2cc(C3=NOC(c4ccc(C(C)=O)nc4)C3)nc(C)n2)ccc1F (stereo not shown) | < 10
COC[C@@H]1CO[C@@H]([C@H]2CC(c3cc(C(=O)NCc4ccc(F)c(OC)c4)nc(C)n3)=NO2)CO1 | > 1000
COc1cc(CNC(=O)c2cc(C3=NOC([C@H]4CC[C@H](CNC(=O)CO)CC4)C3)nc(C)n2)ccc1F (stereo partly shown) | < 10
COc1ccc(C2CC(c3ccnc(C(=O)NCc4cccc(OC)c4)c3)=NO2)cc1 (stereo not shown) | 10 to 100
COc1cc(CNC(=O)c2cc(C3=NO[C@@H](C4CCN(C(=O)CO)CC4)C3)nc(C)n2)ccc1F | 10 to 100
COc1ccc(CNC(=O)c2cc(C3=NO[C@H]([C@H]4CO[C@@H](CO)CO4)C3)nc(C)n2)cc1 [drawing 923] | > 1000
Cc1nc(C(=O)NCc2ccncc2)cc(C2=NO[C@@H]([C@H]3CO[C@H](CO)CO3)C2)n1 | > 1000
COc1cc(CNC(=O)c2cc(C3=NOC(c4ccc(CO)cc4)C3)nc(C)n2)ccc1F (stereo not shown) | < 10
COc1cc(CNC(=O)c2cc(C3=NOC(c4ccc(C(C)=O)cn4)C3)nc(C)n2)ccc1F (stereo not shown) | < 10
COc1cc(CNC(=O)c2cc(C3=NOC(c4ccsc4)C3)nc(C)n2)ccc1F (stereo not shown) | < 10
COc1cc(CNC(=O)c2cc(C3=NOC(C4CCN(C(=O)Nc5ccon5)CC4)C3)nc(C)n2)ccc1F (stereo not shown) | 10 to 100
Cc1nc(C(=O)NCc2ccc(F)c(F)c2)cc(C2=NO[C@H]([C@H]3CO[C@H](CO)CO3)C2)n1 [drawing 952] | 10 to 100
Cc1nc(C(=O)NCc2ccc(F)c(F)c2)cc(C2=NO[C@H](c3ccc(=O)n(C)c3)C2)n1 | < 10
COc1cc(CNC(=O)c2cc(C3=NO[C@H]([C@H]4CO[C@H](CNC(=O)C(C)(C)O)CO4)C3)nc(C)n2)ccc1F | 10 to 100
COc1cc(CNC(=O)c2cc(C3=NOC([C@H]4CC[C@H](NC(=O)N(C)CCO)CC4)C3)nc(C)n2)ccc1F (stereo partly shown) | < 10
